In ChEMBL document CHEMBL1133844, “2-Benzyl-3,4-iminobutanoic acid as inhibitor of carboxypeptidase A” (Bioorg Med Chem Lett, 2001):

Assay: The compound was tested for the inhibition of Carboxypeptidase A

Structure (SMILES)	Ki
O=C(O)[C@@H](Cc1ccccc1)C1CC1	646 µM
O=C(O)[C@@H](Cc1ccccc1)[C@H]1CN1	120 µM
O=C(O)[C@H](Cc1ccccc1)C1CC1	803 µM
O=C(O)[C@H](Cc1ccccc1)[C@@H]1CN1	35 µM
O=C(O)C(Cc1ccccc1)C1CC1 (racemic)	792 µM
O=C(O)C(Cc1ccccc1)c1c[nH]cn1 (racemic)	0.8 µM
O=C(O)[C@H](Cc1ccccc1)[C@H]1CN1 (single isomer, unassigned)	230 µM
O=C(O)[C@@H](Cc1ccccc1)[C@@H]1CN1 (single isomer, unassigned)	510 µM
